Experimental data: patent EP0237348A1, “Cell protection” (THE WELLCOME FOUNDATION LIMITED, priority 1986, dated 1987)

Tested on: Myocaridal infarct size
Assay: Myocardial infarct size after 90 minute LAD occlusion and reperfusion in anaesthetized dogs (ex vivo TTC / Evans blue dual perfusion)
Set-up: species or system Male beagle dogs
Settings: for % Area at Risk * Infarcted: 10 mg/kg intravenously over five minutes beginning fifteen minutes prior to reperfusion, 90 minute LAD occlusion, infarct quantified 24 hours after occlusion, means ± standard error
Description: Male beagle dogs (10-12 kg) were anaesthetized with pentobarbital sodium, intubated, and ventilated with room air via a Harvard respirator. Catheters for infusion and arterial blood pressure measurements were implanted in the left jugular vein and left carotial artery. A thoracotomy was performed at the fourth intercostal space, the heart suspended in a percardial cradle and the left anterior descending artery (LAD) isolated just below the first major diagonal branch. An electromagnetic flow probe was placed on LAD. A 90 minute occlusion of the LAD was produced by placing a snare of 1/0 silk sutre distel to the flow probe. Treatment was initiated intravenously fifteen minutes prior to release of this snare occlusion and continued for 45 minutes after release. The thoracotomy was closed, and the animals were allowed to recover from the surgical procedures. The animals were reanaesthetized 24 hours after the occlusion, and the flow in the LAD reassessed. Then the heart was removed for post mortem quantification of infarct size.
Three groups of dogs were evaluated. Group 1 consisted of saline controls. Group 2 were administered allopurinol and group 3 were administered oxypurinol. Allopurinol and oxypurinol were dissolved, separately, in O.I.N. sodium hydroxide and back-titrated to pH 9.3. The formulations were adminstered intravenously over five minutes beginning fifteen minutes prior to reperfusion.
Myocaridal infarct size was quantified by an ex vivo dual reperfusion technique. Cannulas were inserted into the LAD immediately distel to the site of occlusion and into the aorta above the coronary ostia. The LAD coronary bed that was perfused with 1.5% triphenyl tetrazolium hydrochloride (TTC) in 0.02 M potassium phosphate buffer, pH 7.4. The aorta was perfused in a retrograde manner with 0.5% Evans blue dye. Both regions ere perfused with their respective stains at a constant pressure of 100 mm mercury for five minutes. The heart was cut into 8 mm slices perpendicular to the apex-base axis. The area of the left ventrical at risk of infarction due to aatomical dependence on the LAD for blood flow is identified by the lack of Evans blue in this region. The region of infarcted myocardium within the area was demarcated by the lack of staining of the tissue when perfused with TTC due to a loss of dehydrogenase enzymes.
The transverse ventricular sections were traced carefully on to clear acrylic overlays to provide a permanent record of infarcted methology and to allow planimetric confirmation of infarct size. Ventricular sections then were trimmed of right ventricular muscle, valvular, and fatty tissue. Total left ventricular, area at risk, and infarct was separated by careful dissection and weighted. Infarct size was expressed as a percentage of the anatomic area at risk. […]

## O=c1[nH]c(=O)c2c[nH]nc2[nH]1 [Oxypurinol, 4,6-dihydroxypyrazola(3,4-d)pyrimidine]
10 mg/kg i.v. fifteen minutes prior to reperfusion, significance criterion p less than 0.05 (ANOVA, Bonferroni)
  Reduction of area at risk (infarcted) compared with saline and allopurinol: significantly reduced
  % Area at Risk * Infarcted: 19.0 ± 1.7%
Administered after ischemia and before reperfusion, summary statement
  Reducing cellular injury when administered after ischemia (and before reperfusion): effective

## Oc1ncnc2[nH]ncc12 [Allopurinol]
  % Area at Risk * Infarcted: 43.1 ± 6.1%
